According to PubChem BioAssay AID1963853 (Molecular Pharmacology Branch, DTP, NCI, 2024):
Several values for one entry are separate records, joined by “and”; a condition that tells them apart may be missing. Equal entries are not always repeated.

Tested on: 266295-075-R-J1-PDC spheroid viability
Test: Anticancer human tumor 266295-075-R-J1-PDC patient-derived head and neck squamous carcinoma cell line growth inhibition [POLQ]
Conditions: spheroids with HUVEC and MSC; for viability, T/C: stronger effect = lower value; for IC50: curve of compound
Description: Multicellular complex tumor spheroid response to Polymerase (POL) inhibitors (novobiocin, ART-558, RP6685) in combination with a variety of drugs and investigational agents in selected tumor cell lines
The POL inhibitors (novobiocin, ART-558, and RP6685) were evaluated both individually and in combination with standard of care and investigational anticancer small molecules within a complex spheroid model of solid tumors. . Complex spheroids include a stromal component modeled by human endothelial cells (HUVEC) and fibroblasts modeled by human mesenchymal stem cells (MSCs). The concentration ranges selected for each drug and investigational agent were based upon clinically achievable concentrations if the clinical Cmax of the agent was known.
Compounds. The drugs and investigational agents: novobiocin (NSC847541), ART-558 (NSC835418), RP-6685 (NSC848927), peposertib (NSC802822), ceralasertib (NSC780249), elimusertib (NSC800525), camonsertib (NSC841442), AZD-1390 (NSC803789), olaparib (NSC753686), talazoparib (NSC767125), rucaparib (NSC756644), sotorasib (NSC818433), MRTX-1133 (NSC836407), SN-38 (NSC673596), topotecan (NSC609699), epotoside (NSC141540), doxorubicin (NSC123127), gemcitabine (NSC613327), 5-fluorouracil (NSC19893), paclitaxel (NSC125973), vemurafenib (NSC761431), MSA-2 (NSC828583), SN-011 (NSC837082), adavosertib (NSC754352), prexasertib (NSC758257), carboplatin (NSC241240) and oxaliplatin (NSC266046), were obtained from the National Cancer Institute (NCI) Developmental Therapeutics Program Chemical Repository (21). The FDA-approved anticancer drug set is available from the Developmental Therapeutics Program at https://dtp.cancer.gov/organization/dscb/obtaining/. […] The stock solutions were prepared in dimethyl sulfoxide (DMSO, Sigma-Aldrich, St. Louis, MO, cat. D2650), except for the platinum compounds which were prepared in saline (Quality Biological, Gaithersburg, MD, cat. 114-055-101), at 800-fold the tested concentration and stored at -70 degrees C prior to their use. All drugs and investigational agents were tested over a range starting from a high concentration at or near the clinical Cmax and decreasing in half-log increments. If the clinical Cmax for an agent had not been determined, the highest concentration tested was 10 microM, except for SN-38, which was tested at a high concentration of 1 microM.
Cell Culture. All cells were maintained in an incubator at 37 degrees C and 5% CO2 with 95% humidity. The PDC lines were cultured according to standard operating procedures established by the NCI PDMR (https://pdmr.cancer.gov). Table 3 of the manuscript, lists the cell lines along with the number of the three cell types plated to form the mct-spheroids and media for tumor cell growth. After thawing, all PDC lines, except 997537-175-T-J1-PDC and 415267-285-R-J2-PDC, were cultured in Matrigel-coated flasks prepared with a working solution of 1X Ham's F-12 nutrient mix, without supplementation (Thermo Fisher Scientific, cat. 11765054), 100 U/mL penicillin-streptomycin (Thermo Fisher Scientific, cat. 15140122), and 2.5% Matrigel (Corning Inc., Corning, NY, cat. 354248) for the first three passages. The two PDC lines 997537-175-T-J1-PDC and 415267-285-R-J2-PDC were cultured on uncoated flasks. The 857933-349-R-J2-PDC line was cultured in 6C/Colon 1B media containing advanced DMEM/F-12 (Thermo Fisher Scientific, cat. 12634028), 10 mM HEPES (Thermo Fisher Scientific, cat. 15630080), 1X GlutaMAX supplement (Thermo Fisher Scientific, cat. 35050061), 0.1 mg/mL primocin (InvivoGen, San Diego, CA, cat. ant-pm-2), 10% defined fetal bovine serum, heat inactivated (HyClone Laboratories Inc., Logan, UT, cat. SH30070.03HI), 50% L-WRN conditioned media (ATCC, cat. CRL-3276), 1.25 mM N-Acetyl-L-cysteine (Sigma-Aldrich, cat. A9165), 10 mM nicotinamide (Sigma-Aldrich, cat. N0636), 1X B-27 supplement (Thermo Fisher Scientific, cat. 17504044), 1X N-2 supplement (Thermo Fisher Scientific, cat. […]
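Also: spheroids exposed to compounds for seven days before readout.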

Row | SMILES | viability, T/C (compound 0.0316 µM) | viability, T/C (compound 0.1 µM) | viability, T/C (compound 0.316 µM) | viability, T/C (compound 1 µM) | viability, T/C (compound 3.16 µM) | viability, T/C (compound 10 µM) | IC50 | viability, T/C (compound 0.00316 µM) | viability, T/C (compound 0.01 µM) | viability, T/C (compound 0.00949 µM) | viability, T/C (compound 0.03 µM) | viability, T/C (compound 0.0949 µM) | viability, T/C (compound 0.3 µM) | viability, T/C (compound 0.949 µM) | viability, T/C (compound 3 µM) | viability, T/C (compound 0.000316 µM) | viability, T/C (compound 0.001 µM)
1 | C#Cc1c(F)ccc2cc(O)cc(-c3ncc4c(N5CC6CCC(C5)N6)nc(OCC56CCCN5CC(F)C6)nc4c3F)c12 (stereo unspecified) | 88.8% and 94.8% and 100% | 93.5% and 94.2% and 79.7% | 81.2% and 69.6% and 68.8% | 76.1% and 83.5% and 63.2% | 66% and 76.4% and 54.8% | 61.1% and 56.7% and 58% | > 10000 nM | – | – | – | – | – | – | – | – | – | –
2 | C=CC(=O)N1CCN(c2nc(=O)n(-c3c(C)ccnc3C(C)C)c3nc(-c4c(O)cccc4F)c(F)cc23)C(C)C1 (stereo unspecified) | 85.8% and 77.5% and 104% | 98.6% and 98% and 100% | 100% and 98.1% and 101% | 104% and 95.8% and 112% | 120% and 102% and 128% | 110% and 129% and 93.2% | > 10000 nM | – | – | – | – | – | – | – | – | – | –
3 | C=CCn1c(=O)c2cnc(Nc3ccc(N4CCN(C)CC4)cc3)nc2n1-c1cccc(C(C)(C)O)n1 | 102% and 93.3% and 99.6% | 127% and 114% and 84.3% | 83% and 93.8% and 89.9% | 70% and 70.6% and 63.8% | – | – | > 1000 nM | 98.5% and 82.4% and 90.4% | 86.6% and 97.5% and 99.7% | – | – | – | – | – | – | – | –
4 | CC(=O)O[C@H]1C(=O)[C@@]2(C)[C@H]([C@H](OC(=O)c3ccccc3)[C@]3(O)C[C@H](OC(=O)[C@H](O)[C@@H](NC(=O)c4ccccc4)c4ccccc4)C(C)=C1C3(C)C)[C@]1(OC(C)=O)CO[C@@H]1C[C@@H]2O | – | – | – | – | – | – | > 3000 nM | – | – | 76.7% and 71.7% and 79% | 72.1% and 64.8% and 76% | 54.3% and 61.7% and 67.4% | 80.9% and 69.8% and 75% | 73% and 75.7% and 70.2% | 61.1% and 82% and 77.6% | – | –
5 | CC(C)n1c(=O)n(C)c2cnc3cc(F)c(-c4ccc(OCCCN5CCCCC5)nc4)cc3c21 | 127% and 94.5% and 93.5% | 74.1% and 94.9% and 97.8% | 107% and 111% and 96.5% | 100% and 92.8% and 103% | 89.6% and 91.6% and 94.1% | 70.6% and 64.5% and 76.9% | > 10000 nM | – | – | – | – | – | – | – | – | – | –
6 | CC1COCCN1c1cc(-c2ccnn2C)c2ccnc(-c3ccn[nH]3)c2n1 (stereo unspecified) | 91% and 92.4% and 98.3% | 70.7% and 81.1% and 80.7% | 62.5% and 67.2% and 69.4% | 45.2% and 52.3% and 59.2% | 47.1% and 49% and 53.5% | 36.6% and 36.9% and 32% | 965 nM and 1850 nM and 2430 nM | – | – | – | – | – | – | – | – | – | –
7 | CC1COCCN1c1cc(C2(O)CC3CCC(C2)O3)c2cnn(-c3ccn[nH]3)c2n1 (stereo unspecified) | 74.1% and 100% and 73.6% | 84.5% and 71.6% and 81% | 62.8% and 65.5% and 67.8% | 43.3% and 50.5% and 46.8% | 40.4% and 43.8% and 42.7% | 27.9% and 29.2% and 30.2% | 708 nM and 992 nM and 944 nM | – | – | – | – | – | – | – | – | – | –
8 | CC1COCCN1c1cc(C2(S(C)(=N)=O)CC2)nc(-c2ccnc3[nH]ccc23)n1 (stereo unspecified) | 92.3% and 97.5% and 86.5% | 95.2% and 93.2% and 93.5% | 89.9% and 85.6% and 97.6% | 83.2% and 80% and 78.7% | 73.2% and 87.5% and 76.5% | 55.6% and 56% and 54.7% | > 10000 nM | – | – | – | – | – | – | – | – | – | –
9 | CCCS(=O)(=O)Nc1ccc(F)c(C(=O)c2c[nH]c3ncc(-c4ccc(Cl)cc4)cc23)c1F | 123% and 120% and 97.3% | 110% and 106% and 109% | 105% and 98.9% and 110% | 113% and 136% and 117% | 121% (2×) and 136% | 141% and 162% and 187% | > 10000 nM | – | – | – | – | – | – | – | – | – | –
10 | CC[C@@]1(O)C(=O)OCc2c1cc1n(c2=O)Cc2cc3c(CN(C)C)c(O)ccc3nc2-1 | 89.2% and 93.9% and 103% | 82.4% and 82.3% and 87.1% | – | – | – | – | > 100 nM | 80.3% and 78.6% and 92.5% | 80.8% and 95.8% and 96.8% | – | – | – | – | – | – | 80.3% and 92.4% and 96.2% | 96.8% and 98.5% and 96.1%
11 | CCc1c2c(nc3ccc(O)cc13)-c1cc3c(c(=O)n1C2)COC(=O)[C@]3(O)CC | 71.7% and 92.1% and 88.6% | 87% (2×) and 97.7% | 95.2% and 104% and 109% | 71.8% (2×) and 91.9% | – | – | > 1000 nM | 84.2% and 91.3% and 93.2% | 77.4% and 78.1% and 89.5% | – | – | – | – | – | – | – | –
12 | CCc1cc2c(N3CCc4c(cc(Cn5ccnc5)cc4-c4cn(C)nc4C(F)(F)F)C3=O)cc(C)nc2c(OC)n1 | 98.5% and 103% and 90.3% | 95.8% and 103% and 98.5% | 91.9% and 89.5% and 109% | 120% and 97% and 110% | 123% and 113% and 127% | 128% (2×) and 130% | > 10000 nM | – | – | – | – | – | – | – | – | – | –
13 | CCc1cc2c(N3CCc4c(cc(Cn5ccnc5)cc4-c4cn(C)nc4C(F)(F)F)C3=O)ccnc2c(OC)n1 | 90% and 97.3% and 94% | 86.8% and 96.2% and 103% | 93.4% and 103% and 122% | 106% (2×) and 117% | 125% and 145% and 137% | 126% and 117% and 140% | > 10000 nM | – | – | – | – | – | – | – | – | – | –
